The values that follow come from patent US9834549B2, “3,3-disubstituted-(8-aza-bicyclo[3.2.1]OCT-8-yl)-[5-(1H-pyrazol-4-yl)-thiophen-3-yl]-methanones as inhibitors of 11 (β)-HSD1” (The University Of Edinburgh, priority 2010, dated 2017).

Each structure is given as a SMILES string. Where two headings read alike, the source gives them in different places.

A short description of data set [1]: In vitro human liver microsomal stability assay. Type of data set: in vitro ADME. The note with it: human liver microsomes. As for the experimental part:
To predict in vivo metabolism of compounds, the stability of compounds incubated with human liver microsomes in vitro was determined. Human liver microsome preparations were stored at −80° C. and thawed on ice prior to use. The thawed microsomes were diluted to a concentration of 2 mg/mL in 50 mM sodium phosphate, pH 7.4. Reference and test compounds were prepared as 10 mM stocks in 100% DMSO and diluted to 1 mM in acetonitrile before use. Each compound was tested in triplicate as follows:
4 μL of test or reference compound was added to a well of a 24-well microplate and 0.5 mL of 4 mM NADPH added. The plate was then transferred to a shaker for 10 minutes at room temperature. 30 μL of the compound/NADPH solution was transferred to the well of a 96-well microplate and incubated at 37° C. for 5 minutes. 30 μL of human liver microsomes (pre-incubated at 37° C. for 5 minutes) was added to the well containing the compound/NADPH solution and the plate incubated for the selected period of time (typically 0 or 30 minutes). The reaction was stopped by adding 60 μL of ice cold […] trichloroacetic acid. The plate was centrifuged at 1000 rpm for 5 minutes at room temperature and the supernatant transferred to the well of a new 96-well V-bottomed microplate for mass spectrometric analysis.
Samples were analyzed by TSQ Quantum Discovery Tandem Mass Spectrometer and Surveyor Liquid Chromatogram (Thermo, Hemel-Hempstead, UK). 10 μL of each sample was injected in a mobile phase consisting of 60%:40% methanol:5 mM ammonium acetate at a flow rate of 0.5 mL/minute. The column used was a BDS hypersil, C18, 50×2.1 mm with a 5 μm particle size.
Each compound was tuned with a spray voltage of 3000 V and a capillary temperature of 300° C. and values for tube lens, CID and product ions were determined.
The peak area for each compound was measured in triplicate for the 0 and 30 minute samples and the average of each was reported. The percentage remaining after 30 minutes was calculated as the average peak area of the sample after 30 minutes divided by the average peak area at 0 minutes. The RSD was 10% or lower for each compound.

In the next data set the target is T1, human 11β-HSD1 (Homo sapiens, UniProt P28845).
T1 construct: stably transfected with a construct containing the full-length gene coding for the human 11β-HSD1 enzyme; expressed in transfected cells; host or cells: HEK293 (stably transfected, HEK293/11β-HSD1)
Nature of the data set: Cellular in vitro 11β-HSD1 enzyme inhibition assay (SPA, HEK293/11β-HSD1 cells). Type of data set: cell-based. As for the experimental part:
Compounds were assessed by a Scintillation Proximity Assay (SPA) performed according to the following protocol:
HEK293 cells were stably transfected with a construct containing the full-length gene coding for the human 11β-HSD1 enzyme to create HEK293/11β-HSD1 cells. Cells were routinely cultured in DMEM containing 10% calf foetal serum, 1% glutamine, and 1% penicillin and streptomycin. Prior to assay, cells were plated at 2×10^4 cells/well in 96-well poly-D-Lys coated flat-bottomed microplates and incubated in 5% CO2, 95% O2 at 37° C. for 24 hours. The media in each well was removed immediately before assay.
Compounds to be tested were dissolved in DMSO at 10 mM and serially diluted into water containing 10% DMSO. Diluted compounds at a volume of 10 μL were added to wells of a 96-well V-bottomed microplate. A solution of DMEM, 1% glutamine, 1% penicillin and streptomycin, and 22 nM tritiated cortisone was prepared and 90 μL added to each well of the assay plate. This solution (100 μL/well) was transferred to the plate containing the cells. The plate was then incubated in 5% CO2, 95% O2 at 37° C. for 2 hours.
Following this incubation, 50 μL of the assay solution was transferred to each well of a 96-well scintillation microplate. A mixture consisting of anti-mouse YSi SPA beads, pre-mixed with anti-cortisol antibody in assay buffer (50 mM Tris.HCl, pH 7.0; 300 mM NaCl; 1 mM EDTA, 5% glycerol) was prepared and 50 μL added to each well of the scintillation microplate. An adhesive strip was applied to the microplate and the plate gently shaken for at least 2 hours at room temperature, and then spun briefly on a low speed centrifuge. The plate was read on a scintillation counter suitable for 96-well microplates. For the calculation of percentage inhibition, a series of wells were added to the plate that represented the assay maximum and the assay minimum: one set that contained substrate without cells (minimum) and another set that contained substrate and cells without any compound (maximum).
The calculation of median inhibitory concentration (IC50) values for the compounds was performed using GraphPad Prism® software. Dose-response curves for each compound were plotted as fractional inhibition and data fitted to the four parameter logistic equation.

The mark [2] stands for this setting: HEK293, potency groups, read-out: IC50 for 11β-HSD1 (HEK293).
[3] abbreviates: HEK293 cells transfected with human 11β-HSD1, first value in cell, read-out: IC50 for 11β-HSD1 (HEK293).
Where [4] appears, read: HEK293 cells, value marked * in brackets, read-out: IC50 for 11β-HSD1 (HEK293), (*) average of at least two individual experiments.

T1 sequence (P28845 whole entry): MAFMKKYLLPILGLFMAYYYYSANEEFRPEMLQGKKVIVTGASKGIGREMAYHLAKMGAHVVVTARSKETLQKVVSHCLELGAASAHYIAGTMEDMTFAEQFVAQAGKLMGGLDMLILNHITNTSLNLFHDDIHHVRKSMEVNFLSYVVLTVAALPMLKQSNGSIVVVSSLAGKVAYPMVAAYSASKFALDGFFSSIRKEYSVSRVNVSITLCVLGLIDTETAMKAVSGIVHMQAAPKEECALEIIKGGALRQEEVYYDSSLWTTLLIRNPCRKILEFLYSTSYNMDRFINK

In the case of `O=C(c1csc(-c2cn[nH]c2)c1)N1C2CCC1CC(O)(c1ncccn1)C2` (centres unmarked) [XX-20, (3-Hydroxy-3-pyrimidin-2-yl-8-aza-bicyclo[3.2.1]oct-8-yl)-[5-(1H-pyrazol-4-yl)-thiophen-3-yl]-methanone], the “% Parent Remaining at 30 min” value in data set [1] is “+++ (61-100% +++)”. The IC50 at human 11β-HSD1 (setting [2]) was at most 100 nM; on human 11β-HSD1 (setting [3]) it was 67 nM; at human 11β-HSD1 (setting [4]), 42 nM.

`O=C(c1csc(-c2cn[nH]c2)c1)N1C2CCC1CC(O)(c1nccs1)C2` (centres unmarked) [XX-29]: in data set [1], the “% Parent Remaining at 30 min” value was “+++ (61-100% +++)”. Moreover, the IC50 at human 11β-HSD1 (setting [2]) is at most 100 nM; on human 11β-HSD1 (setting [3]) it was 33 nM; at human 11β-HSD1 (setting [4]), 31 nM.
